Earlier results as cited in patent US20160303150A1, “DEUTERATED TREHALOSE FORMULATIONS AND USES THEREOF” (BioBlast Pharma Ltd., priority 2015, published 2016).

Experiments:
[1] = tested on: transgenic HD mice
[2] = in vivo
[3] = tested on: transgenic OPMD mice
[4] = 0.2%-5% trehalose in drinking water, 5-9 weeks, transgenic HD mice

OC[C@H]1O[C@H](O[C@H]2O[C@H](CO)[C@@H](O)[C@H](O)[C@H]2O)[C@H](O)[C@@H](O)[C@@H]1O [trehalose, α-G-glucopyranosyl α-D-glucopyranoside]
HD-related motor symptoms [1, 4]: improvement of HD-related motor symptoms
formation of intra-nuclear huntingtin aggregates in the brain and liver [1, 4]: inhibition of formation of intra-nuclear huntingtin aggregates in the brain and liver
survival ([1]; oral administration, HD mouse model): extend survival
fraction of administered trehalose not absorbed into the blood stream [2]: over 99.5%
aggregation formation and toxicity of mutant PABPN1 in myocytes ([3]; 2% trehalose in drinking water, 4-6 months): significantly reduce aggregation formation and toxicity of the mutant PABPN1 in myocytes
OPMD onset, disease phenotype, aggregate formation and cell death ([3]; oral trehalose): delay the OPMD onset, attenuate the disease phenotype, decrease polyalanine protein aggregate formation and decrease cell death
oral amount causing diarrhea and bloating (oral): 40-50 gram per day
safety findings in healthy volunteers (oral doses ranging from 10 to 60 gr, healthy volunteers): no other safety issues were reported
oral amount frequently causing diarrhea, bloating and discomfort (oral, humans): higher than 50 g a day
